Source: patent US5441941A, “1,2-dihydroellipticines with activity against CNS specific cancer” (The United States of America as represented by the …, priority 1993, dated 1995)

How the values were obtained:
[1] = test system: DMS 114; assay: cells; details: Homo sapiens; for CC50: DMS-114, read-out: LC-50
[2] = test system: DMS 273; assay: NCI in vitro screen, SRB percent growth, Small Cell Lung Cancer
[3] = DMS-114, read-out: Percent Growth

SMILES	CC50 [1] [µM]	activity at 0.1 µM [1, 3] [%]	activity at 1 µM [1, 3] [%]	activity at 10 µM [1, 3] [%]	activity at 100 µM [1, 3] [%]	Percent Growth ([2]; Log10 Concentration -4.0, 100 µM) [%]	Percent Growth ([2]; Log10 Concentration -5.0) [%]	Percent Growth ([2]; Log10 Concentration -6.0, 1 µM) [%]	Percent Growth ([2]; Log10 Concentration -7.0, 0.1 µM) [%]	Percent Growth ([2]; Log10 Concentration -8.0) [%]	CC50 ([2]; read-out: LC-50, PG=-50) [µM]	activity at 0.01 µM [1, 3] [%]
COc1ccc2[nH]c3c(C)c4c(c(C)c3c2c1)CN(C)C=C4 [Formula VII]	> 100	64	11	-37	-46	-72	10	48	77	98	54.3	
Cc1ccc2[nH]c3c(C)c4c(c(C)c3c2c1)CN(C)C=C4 [Formula XI]	6.03	73		-74	-68							80
